Laboratory results published in patent publication US8293768B2, “Organic compounds” (Novartis AG, priority 2006, dated 2012).

Row | SMILES | melting point
1 | Cc1nc(N2C(=O)N(Cc3ccc(F)cc3)CC2O)sc1C(=O)NCc1cccnc1 (centres unmarked) [Example 16.2, 2-(3-(4-fluorobenzyl)-5-hydroxy-2-oxoimidazolidin-1-yl)-4-methyl-N-(pyridin-3-ylmethyl)thiazole-5-carboxamide] | 64 to 66 °C
2 | Cc1nc(N2C(=O)N(Cc3ccc(C(F)(F)F)cc3)CC2O)sc1C(=O)NCc1cccnc1 (centres unmarked) [Example 16.3, 2-(5-hydroxy-2-oxo-3-(4-(trifluoromethyl)benzyl)imidazolidin-1-yl)-4-methyl-N-(pyridin-3-ylmethyl)thiazole-5-carboxamide] | 171 to 172 °C
3 | Cc1nc(-n2ccn(Cc3ccc(F)cc3)c2=O)sc1C(=O)NCc1ccccc1 [Example 17, N-benzyl-2-(3-(4-fluorobenzyl)-2-oxo-2,3-dihydro-1H-imidazol-1-yl)-4-methylthiazole-5-carboxamide] | 167 to 168 °C
4 | Cc1nc(-n2ccn(CCc3ccc(F)cc3)c2=O)sc1C(=O)NCc1cccnc1 [Example 17.1, 2-(3-(4-fluorophenethyl)-2-oxo-2,3-dihydro-1H-imidazol-1-yl)-4-methyl-N-(pyridin-3-ylmethyl)thiazole-5-carboxamide] | 160 to 162 °C
5 | Cc1nc(-n2ccn(Cc3ccc(F)cc3)c2=O)sc1C(=O)NCc1cccnc1 [Example 17.2, 2-(3-(4-fluorobenzyl)-2-oxo-2,3-dihydro-1H-imidazol-1-yl)-4-methyl-N-(pyridin-3-ylmethyl)thiazole-5-carboxamide] | 158 to 159 °C
6 | Cc1nc(-n2cnn(Cc3c(C)noc3C)c2=O)sc1C(=O)NCc1cccnc1 [Example 19.7, 2-(1-((3,5-dimethylisoxazol-4-yl)methyl)-5-oxo-1H-1,2,4-triazol-4(5H)-yl)-4-methyl-N-(pyridin-3-ylmethyl)thiazole-5-carboxamide] | 233 to 234 °C
7 | Cc1nc(-n2cnn(CCO)c2=O)sc1C(=O)NCc1cccnc1 [Example 19.9, 2-(1-(2-hydroxyethyl)-5-oxo-1H-1,2,4-triazol-4(5H)-yl)-4-methyl-N-(pyridin-3-ylmethyl)thiazole-5-carboxamide] | 201 to 202 °C
8 | Cc1nc(-n2cnn(Cc3ccc(C(F)(F)F)cc3)c2=O)sc1C(=O)NCc1cccnc1 [Example 21, 4-methyl-2-(5-oxo-1-(4-(trifluoromethyl)benzyl)-1H-1,2,4-triazol-4(5H)-yl)-N-(pyridin-3-ylmethyl)thiazole-5-carboxamide] | 156 to 158 °C
9 | Cc1nc(-n2cnn(Cc3ccc(OC(F)F)cc3)c2=O)sc1C(=O)NCc1cccnc1 [Example 21.1, 2-(1-(4-(difluoromethoxy)benzyl)-5-oxo-1H-1,2,4-triazol-4(5H)-yl)-4-methyl-N-(pyridin-3-ylmethyl)thiazole-5-carboxamide] | 151 to 152 °C
10 | Cc1nc(-n2cnn(CCOc3ccc(F)cc3)c2=O)sc1C(=O)NCc1cccnc1 [Example 21.2, 2-(1-(2-(4-fluorophenoxy)ethyl)-5-oxo-1H-1,2,4-triazol-4(5H)-yl)-4-methyl-N-(pyridin-3-ylmethyl)thiazole-5-carboxamide] | 154 to 155 °C
11 | Cc1nc(-n2cnn(Cc3ccc(F)cc3)c2=O)sc1C(=O)NCc1cccnc1 [Example 21.3, 2-(1-(4-fluorobenzyl)-5-oxo-1H-1,2,4-triazol-4(5H)-yl)-4-methyl-N-(pyridin-3-ylmethyl)thiazole-5-carboxamide] | 178 to 179 °C
12 | Cc1nc(-n2cnn(CC3CC3)c2=O)sc1C(=O)NCc1cccnc1 [Example 21.4, 2-(1-(cyclopropylmethyl)-5-oxo-1H-1,2,4-triazol-4(5H)-yl)-4-methyl-N-(pyridin-3-ylmethyl)thiazole-5-carboxamide] | 116 to 117 °C
13 | Cc1nc(-n2cnn(Cc3ccc(C(F)(F)F)o3)c2=O)sc1C(=O)NCc1cccnc1 [Example 21.6, 4-methyl-2-(5-oxo-1-((5-(trifluoromethyl)furan-2-yl)methyl)-1H-1,2,4-triazol-4(5H)-yl)-N-(pyridin-3-ylmethyl)thiazole-5-carboxamide] | 124 to 125 °C
14 | Cc1nc(-n2cn[nH]c2=O)sc1C(=O)NCc1cccnc1 [Example 21.7, 4-methyl-2-(5-oxo-1H-1,2,4-triazol-4(5H)-yl)-N-(pyridin-3-ylmethyl)thiazole-5-carboxamide] | 278 to 279 °C
15 | Cc1nc(-n2cnn(Cc3ccc(F)cc3)c2=O)sc1C(=O)NCc1ncco1 [Example 21.8, 2-(1-(4-fluorobenzyl)-5-oxo-1H-1,2,4-triazol-4(5H)-yl)-4-methyl-N-(oxazol-2-ylmethyl)thiazole-5-carboxamide] | 152 to 153 °C
16 | Cc1nc(-n2cnn(Cc3ccc(F)cc3)c2=O)sc1C(=O)NCc1cc[nH]n1 [Example 21.9, N-((1H-pyrazol-3-yl)methyl)-2-(1-(4-fluorobenzyl)-5-oxo-1H-1,2,4-triazol-4(5H)-yl)-4-methylthiazole-5-carboxamide] | 178 to 179 °C
17 | Cc1nc(-n2cnn(Cc3ccc(F)cc3)c2=O)sc1C(=O)NCc1cnn(C)c1 [Example 21.10, 2-(1-(4-fluorobenzyl)-5-oxo-1H-1,2,4-triazol-4(5H)-yl)-4-methyl-N-((1-methyl-1H-pyrazol-4-yl)methyl)thiazole-5-carboxamide] | 205 to 206 °C
18 | Cc1ncc(CNC(=O)c2sc(-n3cnn(Cc4ccc(F)cc4)c3=O)nc2C)s1 [Example 21.11, 2-(1-(4-fluorobenzyl)-5-oxo-1H-1,2,4-triazol-4(5H)-yl)-4-methyl-N-((2-methylthiazol-5-yl)methyl)thiazole-5-carboxamide] | 176 to 177 °C
19 | Cc1nc(-n2cnn(Cc3ccc(F)cc3)c2=O)sc1C(=O)NCc1nccs1 [Example 21.12, 2-(1-(4-fluorobenzyl)-5-oxo-1H-1,2,4-triazol-4(5H)-yl)-4-methyl-N-(thiazol-2-ylmethyl)thiazole-5-carboxamide] | 189 to 190 °C
20 | Cc1nc(-n2cnn(Cc3ccc(F)cc3)c2=O)sc1C(=O)NCc1cn(C)cn1 [Example 21.14, 2-(1-(4-fluorobenzyl)-5-oxo-1H-1,2,4-triazol-4(5H)-yl)-4-methyl-N-((1-methyl-1H-imidazol-4-yl)methyl)thiazole-5-carboxamide] | 225 to 226 °C
21 | Cc1cnc(CNC(=O)c2sc(-n3cnn(Cc4ccc(F)cc4)c3=O)nc2C)cn1 [Example 21.15, 2-(1-(4-fluorobenzyl)-5-oxo-1H-1,2,4-triazol-4(5H)-yl)-4-methyl-N-((5-methylpyrazin-2-yl)methyl)thiazole-5-carboxamide] | 188 to 189 °C
22 | Cc1nc(N2CCNC2=O)sc1C(=O)NCc1ccccc1 [Example 22, N-benzyl-4-methyl-2-(2-oxoimidazolidin-1-yl)thiazole-5-carboxamide] | 226 to 228 °C
23 | Cc1nc(N2CCN(Cc3ccc(C#N)cc3)C2=O)sc1C(=O)NCc1ccccc1 [Example 23, N-benzyl-2-(3-(4-cyanobenzyl)-2-oxoimidazolidin-1-yl)-4-methylthiazole-5-carboxamide] | 176 to 178 °C
24 | COC(=O)c1cnc(N2CCN(CC3CC3)C2=O)s1 [Example 24, methyl 2-(3-(cyclopropylmethyl)-2-oxoimidazolidin-1-yl)thiazole-5-carboxylate] | 124 to 126 °C
25 | Cc1nc(N2CCN(Cc3cccc(C(=O)O)c3)C2=O)sc1C(=O)NCc1ccccc1 [Example 25, 3-((3-(5-(benzylcarbamoyl)-4-methylthiazol-2-yl)-2-oxoimidazolidin-1-yl)methyl)benzoic acid] | 120 to 123 °C

Next, values leading:

Row | melting point | SMILES
26 | 138 to 140 °C | Cc1nc(N2CCN(Cc3ccccc3C(F)(F)F)C2=O)sc1C(=O)NCc1ccccc1 [Example 23.1, N-benzyl-4-methyl-2-(2-oxo-3-(2-(trifluoromethyl)benzyl)imidazolidin-1-yl)thiazole-5-carboxamide]
27 | 155 to 156 °C | Cc1nc(N2CCN(Cc3cccc(F)c3)C2=O)sc1C(=O)NCc1ccccc1 [Example 23.3, N-benzyl-2-(3-(3-fluorobenzyl)-2-oxoimidazolidin-1-yl)-4-methylthiazole-5-carboxamide]
28 | 143 to 145 °C | Cc1nc(N2CCN(Cc3ccc(C(F)(F)F)o3)C2=O)sc1C(=O)NCc1ccccc1 [Example 23.4, N-benzyl-4-methyl-2-(2-oxo-3-((5-(trifluoromethyl)furan-2-yl)methyl)imidazolidin-1-yl)thiazole-5-carboxamide]
29 | 139 to 141 °C | Cc1nc(N2CCN(Cc3nc(C)n(-c4ccccc4)n3)C2=O)sc1C(=O)NCc1ccccc1 [Example 23.5, N-benzyl-4-methyl-2-(3-((5-methyl-1-phenyl-1H-1,2,4-triazol-3-yl)methyl)-2-oxoimidazolidin-1-yl)thiazole-5-carboxamide]
30 | 215 to 217 °C | Cc1nc(N2CCN(CCc3c[nH]c4ccccc34)C2=O)sc1C(=O)NCc1ccccc1 [Example 23.7, 2-(3-(2-(1H-indol-3-yl)ethyl)-2-oxoimidazolidin-1-yl)-N-benzyl-4-methylthiazole-5-carboxamide]
31 | 49 to 51 °C | COC(=O)c1cccc(CN2CCN(c3nc(C)c(C(=O)NCc4ccccc4)s3)C2=O)c1 [Example 23.9, methyl 3-((3-(5-(benzylcarbamoyl)-4-methylthiazol-2-yl)-2-oxoimidazolidin-1-yl)methyl)benzoate]
32 | 130 to 133 °C | COC(=O)c1ccccc1CN1CCN(c2nc(C)c(C(=O)NCc3ccccc3)s2)C1=O [Example 23.10, methyl 2-((3-(5-(benzylcarbamoyl)-4-methylthiazol-2-yl)-2-oxoimidazolidin-1-yl)methyl)benzoate]
33 | 250 to 252 °C | O=C(O)c1cnc(N2CCN(CC3CC3)C2=O)s1 [Example 25.1, 2-(3-(cyclopropylmethyl)-2-oxoimidazolidin-1-yl)thiazole-5-carboxylic acid]
34 | 143 to 145 °C | Cc1nc(N2CCN(Cc3cccc(C(=O)O)c3)C2=O)sc1C(=O)NCc1ccccc1 [Example 25.3, 3-((3-(5-(benzylcarbamoyl)-4-methylthiazol-2-yl)-2-oxoimidazolidin-1-yl)methyl)benzoic acid]
35 | 153 to 156 °C | Cc1nc(N2CCN(Cc3ccccc3C(=O)O)C2=O)sc1C(=O)NCc1ccccc1 [Example 25.4, 2-((3-(5-(benzylcarbamoyl)-4-methylthiazol-2-yl)-2-oxoimidazolidin-1-yl)methyl)benzoic acid]
